Columns and labels:
[1] = Inhibition of autophagy in human A375P cells assessed as fold change in BNIP3 at 3 uM incubated for 24 hrs by immunoblot analysis relative to control; assay type: functional
[2] = Inhibition of autophagy in human A375P cells assessed as fold change in p62 at 3 uM incubated for 24 hrs by immunoblot analysis relative to control; assay type: functional
[3] = Inhibition of autophagy in human A375P cells assessed as fold change in LC3BII/ LC3BI ratio at 3 uM incubated for 24 hrs by immunoblot analysis relative to control; assay type: functional
[4] = Inhibition of autophagy in human A375P cells assessed as fold change in p-H2AX at 3 uM incubated for 24 hrs by immunoblot analysis relative to control; assay type: functional
[5] = Cytotoxicity against human A375P cells incubated for 72 hrs by MTT assay; assay type: functional, cell-based
[6] = Inhibition of autophagy in human A375P cells assessed as fold change in BNIP3 at 10 uM incubated for 24 hrs by immunoblot analysis relative to control; assay type: functional
[7] = Inhibition of autophagy in human A375P cells assessed as fold change in p62 at 10 uM incubated for 24 hrs by immunoblot analysis relative to control; assay type: functional
[8] = Inhibition of autophagy in human A375P cells assessed as fold change in LC3BII/ LC3BI ratio at 10 uM incubated for 24 hrs by immunoblot analysis relative to control; assay type: functional
[9] = Inhibition of autophagy in human A375P cells assessed as fold change in H2AX at 10 uM incubated for 24 hrs by immunoblot analysis relative to control; assay type: functional

Structure (SMILES) | fold change (FC) [1] | fold change (FC) [2] | fold change (FC) [3] | fold change (FC) [4] | IC50 [5] | fold change (FC) [6] | fold change (FC) [7] | fold change (FC) [8] | fold change (FC) [9]
Clc1ccc2c(NCCCCCCNCCCCCCNc3ccnc4cc(Cl)ccc34)ccnc2c1 | 1.3 | 1.1 | 15.2 | 20.8 | – | – | – | – | –
NCCN(CCNc1ccnc2cc(Cl)ccc12)CCNc1ccnc2cc(Cl)ccc12 | – | – | – | – | 12300 nM | 0.7 | 0.5 | 1 | 1.4
CCOCCOCCN(CCCCCCNc1ccnc2cc(Cl)ccc12)CCCCCCNc1ccnc2cc(Cl)ccc12 | 5.1 | 2.7 | 28 | – | 650 nM | – | – | – | –
CCCCCCCCN(CCCCCCNc1ccnc2cc(Cl)ccc12)CCCCCCNc1ccnc2cc(Cl)ccc12 | 0.7 | 1.6 | 27 | – | 420 nM | – | – | – | –
CN(C)CCN(CCNc1ccnc2cc(Cl)ccc12)CCNc1ccnc2cc(Cl)ccc12 | – | – | – | – | 4600 nM | 1.7 | 0.8 | 4.8 | 3
CNCCN(CCNc1ccnc2cc(Cl)ccc12)CCNc1ccnc2cc(Cl)ccc12 | – | – | – | – | 13000 nM | 0.4 | 0.6 | 0.8 | 1.4
CCCCCCCCN(CCNc1ccnc2cc(Cl)ccc12)CCNc1ccnc2cc(Cl)ccc12 | 5.9 | 4 | 26 | – | 1280 nM | – | – | – | –
CCOCCOCCN(CCNc1ccnc2cc(Cl)ccc12)CCNc1ccnc2cc(Cl)ccc12 | – | – | – | – | 5990 nM | – | – | – | –
CN(CCCCCCNc1ccnc2cc(Cl)ccc12)CCCCCCNc1ccnc2cc(Cl)ccc12 | 3.2 | 1.8 | 24 | 4.7 | 490 nM | – | – | – | –

Source: ChEMBL document CHEMBL4823297, “Anticancer properties of bisaminoquinolines with modified linkers” (Bioorg Med Chem Lett, 2021)
